The source of these data is patent publication US12384808B2, “Modulators of TNF-α activity” (Forward Therapeutics, Inc., priority 2022, dated 2025).

TNFα, sequence (P01375 77-233 limits assumed): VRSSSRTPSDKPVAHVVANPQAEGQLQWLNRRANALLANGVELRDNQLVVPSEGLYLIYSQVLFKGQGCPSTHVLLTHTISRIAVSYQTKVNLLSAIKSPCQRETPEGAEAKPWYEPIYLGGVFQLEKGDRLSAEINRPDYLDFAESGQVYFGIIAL

The assay addresses TNFα (Homo sapiens, UniProt P01375). Nature of the assay: TNFα Induced HEK Blue Cellular Assay. In kind it is cell-based. The note with it: HEK Blue TNFα reporter cells, TNFα 100 pg/ml, 24 hrs at 37° C., secreted alkaline phosphatase (QUANTI-Blue) read at 620 nm; read-out: IC50 value. Put shortly: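 IC50 fitted with a 4-parameter logistic model from % inhibition, normalised to DMSO controls with and without stimulation. Readout: QUANTI-Blue SEAP at 620 nm after 24 h, 37 °C exposure to TNFα (100 pg/ml final) and test compound at […]–0.5 nM final.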
As to `[2H]C([2H])([2H])N1C(=O)c2cccc(OC(F)F)c2[C@H]2C[C@@H]1c1nc3ccc(-c4cc(C)c(P(C)(C)=O)c(F)c4)cc3n12` [Example 106, (7R,14R)-1-(difluoromethoxy)-11-(4-(dimethylphosphoryl)-3-fluoro-5-methylphenyl)-6-(methyl-d3)-6,7-dihydro-7,14-methanobenzo[f]benzo[4,5]imidazo[1,2-a][1,4]diazocin-5(14H)-one], the IC50 was less than 100 nM. In the case of `[2H]C([2H])([2H])N1C(=O)c2cccc(OC(F)F)c2[C@H]2C[C@@H]1c1nc3ccc(-c4ccc(P(C)(C)=O)c(C)c4F)cc3n12` [Example 107, (7R,14R)-1-(difluoromethoxy)-11-(4-(dimethylphosphoryl)-2-fluoro-3-methylphenyl)-6-(methyl-d3)-6,7-dihydro-7,14-methanobenzo[f]benzo[4,5]imidazo[1,2-a][1,4]diazocin-5(14H)-one], the IC50 was less than 100 nM. On to `[2H]C([2H])([2H])N1C(=O)c2cccc(OC(F)F)c2[C@H]2C[C@@H]1c1nc3ccc(-c4cc(F)c(CP(C)(C)=O)cc4C)cc3n12` [Example 108, (7R,14R)-1-(difluoromethoxy)-11-(4-((dimethylphosphoryl)methyl)-5-fluoro-2-methylphenyl)-6-(methyl-d3)-6,7-dihydro-7,14-methanobenzo[f]benzo[4,5]imidazo[1,2-a][1,4]diazocin-5(14H)-one], for which the IC50 was less than 100 nM. `[2H]C([2H])([2H])N1C(=O)c2cccc(OC(F)F)c2[C@H]2C[C@@H]1c1nc3ccc(-c4ccc(P(C)(C)=O)c(F)n4)cc3n12` [Example 115, (7R,14R)-1-(difluoromethoxy)-11-(5-(dimethylphosphoryl)-6-fluoropyridin-2-yl)-6-(methyl-d3)-6,7-dihydro-7,14-methanobenzo[f]benzo[4,5]imidazo[1,2-a][1,4]diazocin-5(14H)-one]: the IC50 is less than 100 nM. On to `[2H]C([2H])([2H])N1C(=O)c2cccc(OC(F)F)c2[C@H]2C[C@@H]1c1nc3ccc(-c4ccc(C(C)P(C)(C)=O)nc4)cc3n12` (stereo partly drawn) [Example 116, (7R,14R)-1-(difluoromethoxy)-11-(6-(1-(dimethylphosphoryl)ethyl)pyridin-3-yl)-6-(methyl-d3)-6,7-dihydro-7,14-methanobenzo[f]benzo[4,5]imidazo[1,2-a][1,4]diazocin-5(14H)-one], for which the IC50 was less than 100 nM. As for `[2H]C([2H])([2H])N1C(=O)c2cccc(OC(F)F)c2[C@H]2C[C@@H]1c1nc3ccc(-c4ccc(P(C)(C)=O)c(Cl)c4)cc3n12` [Example 117, (7R,14R)-11-(3-chloro-4-(dimethylphosphoryl)phenyl)-1-(difluoromethoxy)-6-(methyl-d3)-6,7-dihydro-7,14-methanobenzo[f]benzo[4,5]imidazo[1,2-a][1,4]diazocin-5(14H)-one], the IC50 was less than 100 nM. To `[2H]C([2H])([2H])N1C(=O)c2cccc(OC(F)F)c2[C@H]2C[C@@H]1c1nc3ccc(-c4ccc(C(C)(C)P(C)(C)=O)nc4)cc3n12` [Example 120, (7R,14R)-1-(difluoromethoxy)-11-(6-(2-(dimethylphosphoryl)propan-2-yl)pyridin-3-yl)-6-(methyl-d3)-6,7-dihydro-7,14-methanobenzo[f]benzo[4,5]imidazo[1,2-a][1,4]diazocin-5(14H)-one] belongs less than 100 nM; to `[2H]C([2H])([2H])N1C(=O)c2cccc(OC(F)F)c2[C@H]2C[C@@H]1c1nc3ccc(-c4ccc(P(C)(C)=O)c(Cl)n4)cc3n12` [Example 121, (7R,14R)-11-(6-chloro-5-(dimethylphosphoryl)pyridin-2-yl)-1-(difluoromethoxy)-6-(methyl-d3)-6,7-dihydro-7,14-methanobenzo[f]benzo[4,5]imidazo[1,2-a][1,4]diazocin-5(14H)-one], 100 to 1000 nM; to `[2H]C([2H])([2H])N1C(=O)c2cccc(OC(F)F)c2[C@H]2C[C@@H]1c1nc3ccc(-c4ccc(P(C)(C)=O)c(C(F)(F)F)c4)cc3n12` [Example 122, (7R,14R)-1-(difluoromethoxy)-11-(4-(dimethylphosphoryl)-3-(trifluoromethyl)phenyl)-6-(methyl-d3)-6,7-dihydro-7,14-methanobenzo[f]benzo[4,5]imidazo[1,2-a][1,4]diazocin-5(14H)-one], 100 to 1000 nM. Consider `[2H]C([2H])([2H])N1C(=O)c2cccc(OC(F)F)c2[C@H]2C[C@@H]1c1nc3ccc(-c4cc(F)c(P(C)(C)=O)c(C)n4)cc3n12` [Example 123, (7R,14R)-1-(difluoromethoxy)-11-(5-(dimethylphosphoryl)-4-fluoro-6-methylpyridin-2-yl)-6-(methyl-d3)-6,7-dihydro-7,14-methanobenzo[f]benzo[4,5]imidazo[1,2-a][1,4]diazocin-5(14H)-one], for which the half-inhibitory concentration (IC50) lay in the range of 100 to 1000 nM. To `[2H]C([2H])([2H])N1C(=O)c2cccc(OC(F)F)c2[C@H]2C[C@@H]1c1nc3ccc(-c4cnc(P(C)(C)=O)c(F)c4)cc3n12` [Example 124, (7R,14R)-1-(difluoromethoxy)-11-(6-(dimethylphosphoryl)-5-fluoropyridin-3-yl)-6-(methyl-d3)-6,7-dihydro-7,14-methanobenzo[f]benzo[4,5]imidazo[1,2-a][1,4]diazocin-5(14H)-one] belongs less than 100 nM.

In the case of `[2H]C([2H])([2H])N1C(=O)c2cccc(OC(F)F)c2[C@H]2C[C@@H]1c1nc3ccc(-c4ccc(P(=O)(CC)CC)c(F)c4)cc3n12` [Example 125, (7R,14R)-11-(4-(diethylphosphoryl)-3-fluorophenyl)-1-(difluoromethoxy)-6-(methyl-d3)-6,7-dihydro-7,14-methanobenzo[f]benzo[4,5]imidazo[1,2-a][1,4]diazocin-5(14H)-one], the IC50 was less than 100 nM.

On to `[2H]C([2H])([2H])N1C(=O)c2cccc(OC(F)F)c2[C@H]2C[C@@H]1c1nc3ccc(-c4ccc(P(=O)(CC)CC)nc4)cc3n12` [Example 126, (7R,14R)-11-(6-(diethylphosphoryl)pyridin-3-yl)-1-(difluoromethoxy)-6-(methyl-d3)-6,7-dihydro-7,14-methanobenzo[f]benzo[4,5]imidazo[1,2-a][1,4]diazocin-5(14H)-one], for which the IC50 is less than 100 nM. Consider `[2H]C([2H])([2H])N1C(=O)c2cccc(OC(F)F)c2[C@H]2C[C@@H]1c1nc3ccc(-c4cnc(P(=O)(CC)CC)c(F)c4)cc3n12` [Example 127, (7R,14R)-11-(6-(diethylphosphoryl)-5-fluoropyridin-3-yl)-1-(difluoromethoxy)-6-(methyl-d3)-6,7-dihydro-7,14-methanobenzo[f]benzo[4,5]imidazo[1,2-a][1,4]diazocin-5(14H)-one], for which the IC50 was less than 100 nM. In the case of `[2H]C([2H])([2H])N1C(=O)c2cccc(OC(F)(F)F)c2[C@H]2C[C@@H]1c1nc3ccc(-c4ccc(P(C)(C)=O)c(F)c4)cc3n12` [Example 128, (7R,14R)-11-(4-(dimethylphosphoryl)-3-fluorophenyl)-6-(methyl-d3)-1-(trifluoromethoxy)-6,7-dihydro-7,14-methanobenzo[f]benzo[4,5]imidazo[1,2-a][1,4]diazocin-5(14H)-one], the IC50 is less than 100 nM. Turning to `[2H]C([2H])([2H])N1C(=O)c2cccc(OC(F)F)c2[C@H]2C[C@@H]1c1nc3ccc(-c4cc(F)c(P(C)(C)=O)c(OC)c4)cc3n12` [Example 129, (7R,14R)-1-(difluoromethoxy)-11-(4-(dimethylphosphoryl)-3-fluoro-5-methoxyphenyl)-6-(methyl-d3)-6,7-dihydro-7,14-methanobenzo[f]benzo[4,5]imidazo[1,2-a][1,4]diazocin-5(14H)-one], the IC50 was less than 100 nM. On to `[2H]C([2H])([2H])N1C(=O)c2cccc(OC(F)F)c2[C@H]2C[C@@H]1c1nc3ccc(-c4cc(F)c(P(C)(C)=O)cc4OC)cc3n12` [Example 130, (7R,14R)-1-(difluoromethoxy)-11-(4-(dimethylphosphoryl)-5-fluoro-2-methoxyphenyl)-6-(methyl-d3)-6,7-dihydro-7,14-methanobenzo[f]benzo[4,5]imidazo[1,2-a][1,4]diazocin-5(14H)-one], for which the IC50 is less than 100 nM. `[2H]C([2H])([2H])N1C(=O)c2cccc(OC(F)F)c2[C@H]2C[C@@H]1c1nc3ccc(-c4cc(N)c(P(C)(C)=O)c(F)c4)cc3n12` [Example 131, (7R,14R)-11-(3-amino-4-(dimethylphosphoryl)-5-fluorophenyl)-1-(difluoromethoxy)-6-(methyl-d3)-6,7-dihydro-7,14-methanobenzo[f]benzo[4,5]imidazo[1,2-a][1,4]diazocin-5(14H)-one]: the IC50 was in the range of 10000 to 30000 nM.

Regarding `[2H]C([2H])([2H])N1C(=O)c2cccc(OC(F)F)c2[C@H]2C[C@@H]1c1nc3ccc(-c4cc(C)c(P(C)(C)=O)c(F)n4)cc3n12` [Example 132, (7R,14R)-1-(difluoromethoxy)-11-(5-(dimethylphosphoryl)-6-fluoro-4-methylpyridin-2-yl)-6-(methyl-d3)-6,7-dihydro-7,14-methanobenzo[f]benzo[4,5]imidazo[1,2-a][1,4]diazocin-5(14H)-one], the IC50 was less than 100 nM. For the compound `[2H]C([2H])([2H])N1C(=O)c2cccc(OC(F)F)c2[C@H]2C[C@@H]1c1nc3ccc(-c4cc(F)c(P(C)(C)=O)c(C#N)c4)cc3n12` [Example 133, 5-((7R,14R)-1-(difluoromethoxy)-6-(methyl-d3)-5-oxo-5,6,7,14-tetrahydro-7,14-methanobenzo[f]benzo[4,5]imidazo[1,2-a][1,4]diazocin-11-yl)-2-(dimethylphosphoryl)-3-fluorobenzonitrile], the IC50 is less than 100 nM. With `[2H]C([2H])([2H])N1C(=O)c2cccc(OC(F)F)c2[C@H]2C[C@@H]1c1nc3ccc(-c4cnc(P(C)(C)=O)c(C)c4)cc3n12` [Example 134, (7R,14R)-1-(difluoromethoxy)-11-(6-(dimethylphosphoryl)-5-methylpyridin-3-yl)-6-(methyl-d3)-6,7-dihydro-7,14-methanobenzo[f]benzo[4,5]imidazo[1,2-a][1,4]diazocin-5(14H)-one], the IC50 is less than 100 nM.

Broadly, the IC50 is the concentration needed to halve the response being measured.
